In paper PMC5626944 (Frontiers in Pharmacology, 2017):
pEC50: −log10 of the molar value. Structures can show the parent of a compound that is named as a salt. Where two headings read alike, the source gives them in different places. Values belong to the compound of their own block, whether it stands above or below them.

Tests used:
α7 nAChRs = system: α7 nAChRs; design: method as in Carroll et al., 2015; details: ref Carroll et al., 2015; cited from earlier work
α3β4 nAChRs = system: α3β4 nAChRs; design: method as in Carroll et al., 2015; details: ref Carroll et al., 2015; cited from earlier work
CYP2D6 = assay: Turnover by recombinantly expressed human cytochrome P450 isoforms; assay type: in vitro ADME; details: 100 pmol/mL enzyme, 37 °C
Method: (§1) S2 Table. In vitro metabolism of TC299423, compared w ith varenicline.
(§2) Human Rat microsomes Turnover by human cytochrome P450 isoforms […]
(§3) The assay mixtures (final incubation volume of 125 μL) in 0.255 M phosphate buffer with 0.575% (w/v) KCl (pH 7.4) contained PiB (1.0 μM), […] a recombinantly expressed cytochrome P450 enzyme preparation (1A2, 2C9, 2C19, 2D6, 3A4, and FMO3) at 100 pmol/mL. After a 10 min preincubation at 37 °C, the reaction was initiated by addition of 2.0 mM NADPH and incubated for 60 min. The reactions were terminated by the addition of two volumes of DMSO. Samples were subsequently centrifuged at 4,000 rpm for 10 min. From the resulting supernatant, 10 μ L was analyzed by liquid chromatography/tandem mass spectrometry (LC-MS/MS). Control experiments were performed by substituting the active enzyme preparation by cell preparations containing no recombinant human CYP. a, Data for clearance are given as μL /min/mg protein. […]
(§4) c, Data for cytochrome P450 turnover and for human flavin- containing monooxygenase 3 (FMO3) are given as percent decline over 60 min.

CYP1A2 = assay: as above; assay type: in vitro ADME; details: 100 pmol/mL enzyme, 37 °C
Method: as §1, §2, §3, §4

CYP2C19 = assay: as above; assay type: in vitro ADME; details: 100 pmol/mL enzyme, 37 °C
Method: as §1, §2, §3, §4

CYP3A4 = assay: as above; assay type: in vitro ADME; details: 100 pmol/mL enzyme, 37 °C
Method: as §1, §2, §3, §4

CYP2C9 = assay: as above; assay type: in vitro ADME; details: 100 pmol/mL enzyme, 37 °C
Method: as §1, §2, §3, §4

[1] = In vitro metabolism in microsomes; assay type: in vitro ADME; details: human microsomes
[2] = In vitro metabolism in microsomes; assay type: in vitro ADME; details: rat microsomes
WT mice [3] = assay: Marble burying assay; assay type: in vivo, mouse; details: 0.3 mg/kg ip
WT and α6L9′S mice = assay: Locomotor assay in a novel environment; assay type: in vivo, mouse; details: for Ambulatory activity in a novel environment: 0.5 μmol/kg ip (nicotine 0.08 mg/kg, TC299423 0.09 mg/kg)
Method: Mice were habituated to the experimental room for 2 h prior to the experiment. Horizontal locomotor activity was recorded using an infrared photobeam activity cage system (San Diego Instruments; San Diego, CA, United States). After habituating to the experimental room, mice were placed singly in a novel cage. Ambulations were recorded when two contiguous photobeams were broken in succession, preventing activity from being recorded by most sedentary animals. Ambulation events were measured for 45 min with four 15 s intervals per min. Mice were given a total of two intraperitoneal (ip) injections. First, mice were pre-injected with saline or 1 mg/kg mecamylamine before being placed in the activity cages.

WT mice [4] = assay: Hot plate assay; assay type: in vivo, mouse; details: 0.3 mg/kg ip each, 55°C hot plate, p < 0.05
Method: Mice were again habituated to the experimental room for ≥2 h prior to testing. […] This apparatus is a heated metal plate, maintained at 55°C, enclosed by a clear acrylic plastic cylinder (∼10 cm in diameter), within which the mouse is free to move. […] If the mouse urinates during the assay, it is immediately removed from the hot plate. The time that the mouse remains on the hot plate prior to showing signs of discomfort is recorded. Doses were administered using a Latin-square crossover design. A day without testing occurred between each test.

α4β2* nAChRs = α4β2* nAChRs (Mus musculus, UniProt O70174+Q9ERK7); assay: biochemical; assay type: biochemical; details: 10 μM
Method: (§5) Regions of interest were dissected from fresh mouse brains and homogenized in ice-cold isotonic sucrose (0.32 M), buffered with HEPES (5 mM, pH 7.5). The suspension was centrifuged at 12,000 × g for 20 min.
Superfusion proceeded at 0.7 mL/min for 10 min before stimulation with agonist for 20 s. Selected aliquots were perfused with α-CtxMII (50 nM) for 3 min immediately before stimulation. […] Fractions (∼0.1 mL) were collected into 96-well plates at 10 s intervals for 4 min (starting ∼1 min before stimulation).

α6β2* nAChRs = α6β2* nAChRs (Mus musculus, UniProt Q9ERK7+Q9R0W9); assay: biochemical; assay type: biochemical; details: 10 μM
Method: as §5, with “min. The pellet was re-suspended in the appropriate uptake buffer ([Grady et al., 2001]; [Salminen et al., 2004]; [Marks et al., 2006]) and used immediately.” for “min.”
Superfusion was carried out at 22°C using a buffer containing: NaCl, 128 mM; KCl, 2.4 mM; CaCl2, 3.2 mM; MgSO4, 1.2 mM; KH2PO4, 1.2 mM; HEPES, 25 mM; glucose, 10 mM; ascorbic acid, 1 mM; pargyline, 0.01 mM; 0.1% BSA; nomifensine, 1 μM (to prevent the re-uptake of dopamine); atropine, 1 μM (to prevent muscarinic receptor activation); pH 7.5. Superfusion proceeded at 0.7 mL/min for 10 min before stimulation with agonist for 20 s. Selected aliquots were perfused with α-CtxMII (50 nM) for 3 min immediately before stimulation. This concentration of α-CtxMII was sufficient to inhibit α6β2^∗-nAChRs in the mouse striatum ([Salminen et al., 2004], [2007]). Fractions (∼0.1 mL) were collected into 96-well plates at 10 s intervals for 4 min (starting ∼1 min before stimulation). After adding 0.15 mL of Optiphase SuperMix scintillation cocktail, radioactivity was measured using a 1450 MicroBeta TriLux counter (Perkin Elmer Life Sciences).

α6β2* nAChRs, sequence (Q9R0W9 31-494): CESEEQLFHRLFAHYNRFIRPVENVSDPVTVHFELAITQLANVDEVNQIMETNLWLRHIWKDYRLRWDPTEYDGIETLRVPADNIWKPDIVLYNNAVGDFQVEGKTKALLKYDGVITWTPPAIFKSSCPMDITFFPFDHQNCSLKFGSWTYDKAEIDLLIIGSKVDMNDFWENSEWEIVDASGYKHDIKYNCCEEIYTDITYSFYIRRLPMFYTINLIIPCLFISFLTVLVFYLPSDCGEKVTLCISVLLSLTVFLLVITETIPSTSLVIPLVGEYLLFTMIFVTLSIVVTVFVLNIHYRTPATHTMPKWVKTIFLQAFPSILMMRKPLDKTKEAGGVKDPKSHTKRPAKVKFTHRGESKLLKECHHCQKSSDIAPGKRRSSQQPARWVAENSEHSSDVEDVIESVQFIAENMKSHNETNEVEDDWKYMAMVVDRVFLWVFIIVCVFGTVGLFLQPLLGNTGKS
α6β2* nAChRs, sequence (Q9ERK7 26-501): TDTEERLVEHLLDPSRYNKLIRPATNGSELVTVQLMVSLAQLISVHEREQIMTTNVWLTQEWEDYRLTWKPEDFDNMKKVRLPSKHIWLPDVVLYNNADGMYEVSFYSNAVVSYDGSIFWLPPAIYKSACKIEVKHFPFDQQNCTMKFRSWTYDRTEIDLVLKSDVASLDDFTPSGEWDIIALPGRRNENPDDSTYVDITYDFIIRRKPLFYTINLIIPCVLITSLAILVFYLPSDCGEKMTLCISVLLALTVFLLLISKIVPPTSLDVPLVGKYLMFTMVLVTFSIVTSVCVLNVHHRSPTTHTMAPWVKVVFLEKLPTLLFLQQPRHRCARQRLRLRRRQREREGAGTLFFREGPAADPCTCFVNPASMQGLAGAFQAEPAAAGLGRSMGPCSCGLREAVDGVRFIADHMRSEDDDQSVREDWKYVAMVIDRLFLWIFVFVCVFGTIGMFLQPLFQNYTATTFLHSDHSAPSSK
α6β2* nAChRs, sequence (Q8BMN3 31-464 partner): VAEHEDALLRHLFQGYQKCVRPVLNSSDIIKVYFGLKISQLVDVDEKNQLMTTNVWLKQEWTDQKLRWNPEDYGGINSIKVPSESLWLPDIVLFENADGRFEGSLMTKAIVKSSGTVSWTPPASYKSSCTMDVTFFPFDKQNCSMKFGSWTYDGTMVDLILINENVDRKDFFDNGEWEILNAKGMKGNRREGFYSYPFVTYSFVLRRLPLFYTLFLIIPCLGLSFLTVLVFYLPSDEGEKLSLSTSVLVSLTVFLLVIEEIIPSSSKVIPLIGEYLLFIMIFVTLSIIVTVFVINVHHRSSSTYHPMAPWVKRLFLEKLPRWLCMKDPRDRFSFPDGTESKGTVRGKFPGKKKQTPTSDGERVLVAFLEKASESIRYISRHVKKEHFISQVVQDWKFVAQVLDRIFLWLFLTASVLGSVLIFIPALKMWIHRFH
α4β2* nAChRs, sequence (O70174 31-629): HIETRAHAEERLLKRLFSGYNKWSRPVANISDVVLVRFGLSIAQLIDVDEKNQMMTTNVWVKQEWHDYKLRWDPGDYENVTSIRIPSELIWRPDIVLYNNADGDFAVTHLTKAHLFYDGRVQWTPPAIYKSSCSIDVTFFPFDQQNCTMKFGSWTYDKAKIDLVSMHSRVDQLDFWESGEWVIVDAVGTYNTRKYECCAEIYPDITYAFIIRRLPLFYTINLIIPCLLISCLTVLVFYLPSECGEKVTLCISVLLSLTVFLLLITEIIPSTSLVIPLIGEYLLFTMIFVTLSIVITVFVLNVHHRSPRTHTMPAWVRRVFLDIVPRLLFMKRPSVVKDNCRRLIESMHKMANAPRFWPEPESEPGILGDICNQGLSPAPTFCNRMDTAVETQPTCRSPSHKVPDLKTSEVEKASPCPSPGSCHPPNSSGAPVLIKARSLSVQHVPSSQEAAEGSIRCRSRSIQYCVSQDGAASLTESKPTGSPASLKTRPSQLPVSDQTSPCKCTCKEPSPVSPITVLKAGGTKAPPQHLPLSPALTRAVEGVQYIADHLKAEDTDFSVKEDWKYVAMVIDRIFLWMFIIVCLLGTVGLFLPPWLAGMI
α4β2* nAChRs, sequence (Q9ERK7 26-501): as the sequence (Q9ERK7 26-501) above

Structure (SMILES): c1cc2c(cn1)[C@@H]1CC[C@H](CCC2)N1 [PHT, (+)-pyrido[3,4]homotropane]
pEC50 (α7 nAChRs): 6.18
pEC50 (α3β4 nAChRs): 6.37

Turnover by CYP2D6 (CYP2D6): 39 percent decline over 60 min
Turnover by CYP1A2 (CYP1A2): 7 percent decline over 60 min
Turnover by CYP2C19 (CYP2C19): 0 percent decline over 60 min
Turnover by CYP3A4 (CYP3A4): 50 percent decline over 60 min
Turnover by CYP2C9 (CYP2C9): 0 percent decline over 60 min
half-life [1]: 43 min
microsomal CLint ([1]; read-out: Clearance): 39 µL/min/mg
half-life [2]: 10 min
microsomal CLint ([2]; read-out: Clearance): 233 µL/min/mg
Structure (SMILES): c1cnc2cc3c(cc2n1)[C@@H]1CNC[C@H]3C1 [varenicline, Varenicline tartrate, reference compound]
Marbles buried compared with saline (WT mice [3]): significantly fewer marbles

Structure (SMILES): CNC1(C)C2CCC(C2)C1(C)C (centres unmarked) [mecamylamine]
Effect of pre-injection on nicotine- and TC299423-induced increases in ambulation (WT and α6L9′S mice; α6L9′S mice, 1 mg/kg ip pre-injection): blocked

Structure (SMILES): CN1CCC[C@H]1c1cccnc1 [nicotine, (L)-nicotine hydrogen tartrate]
Antinociceptive effect compared with varenicline (WT mice [4]): significantly greater than that of varenicline
α-CtxMII-resistant [3H]-dopamine release elicited (α4β2* nAChRs): 7.78 ± 0.83 units
Ambulatory activity in a novel environment (WT and α6L9′S mice; WT mice): Neither TC299423 nor nicotine affected WT ambulation
Ambulatory activity in a novel environment (WT and α6L9′S mice; α6L9′S mice): dramatically increased the ambulatory activity
α-CtxMII-sensitive [3H]-dopamine release elicited (α6β2* nAChRs): 3.63 ± 0.81 units
Marbles buried compared with saline (WT mice [3]): significantly fewer marbles
Marbles buried compared with varenicline (WT mice [3]; p < 0.001): fewer marbles
